Assay results taken from patent US4368267A, “Epoxidation of lower α-olefins” (priority 1980, dated 1983).

Key:
Assay in all cases: Methane and propylene oxidation by cell fractions
Format in all cases: biochemical
[1] = tested on: P(40), P(80), S(80) cell fractions of Methylobacterium sp. (CRL-26, NRRL B-11,222); settings: 30° C.
Method: (§1) Cells were washed twice with 25 mM potassium phosphate buffer, pH 7.0 containing 5 mM MgCl2. Cells were suspended in the same buffer. The cell suspensions at 4° C. were disintegrated by a single passage through a French Pressure cell (15,000 lb./in.^2) and centrifuged at 5000×g. for 15 min. to remove unbroken bacteria. The supernatant solution (crude extract) was then centrifuged at 40,000×g. for 30 min., yielding particulate P(40) and soluble S(40) fractions. The S(40) fraction was subsequently centrifuged at 80,000×g. for 60 min., yielding particulate P(80) and soluble S(80) fractions. The particulate fractions [P(40) and P(80)] were suspended in 25 mM potassium phosphate buffer, pH 7.0, containing 5 mM MgCl2 and homogenized at 4° C.
(§2) The oxidation of methane and propylene by particulate [(P)40 and (P)80] fractions and soluble [S(80)] fraction was measured at 30° C. by estimating the production of methanol and propylene oxide, respectively. The reaction mixtures contained in 1.0 ml: 150 mM potassium phosphate buffer, pH 7.0 containing 5 mM MgCl2, 0.6 ml; […] NADH, and cellular fraction.
(§3) Reaction mixtures were contained in 10 ml vials at 4° C. Vials were sealed with rubber caps. The gaseous phase in the vials was removed using vacuum and then was replaced with a gas mixture of methane or propylene and oxygen at a 1:1, v/v ratio. Oxidation of other gaseous n-alkanes and n-alkenes was examined as described above. For liquid substrates, 10 μl of substrate was used directly.
(§4) The products of epoxidation of n-alkenes and hydroxylation of n-alkanes were assayed by flame ionization gas chromatography using a stainless steel column (12'×1/8") packed with 10% Carbowax 20 M on 80/100 Chromosorb W and Porapak Q column. The column temperature was maintained isothermally at 120° C. The carrier gas flow rate was 30 ml/min. of helium. The various products were identified by retention time comparisons and co-chromatography with authentic standards.
(§5) Specific activities were expressed as μ moles of products formed per hour per mg. protein. Concentrations of protein in various fractions were determined by the method of Lowry et al., J. Biol. Chem. 193: 265-275 (1951).

[2] = molecular target: T1, P(40), P(80), S(80) cell fractions of Methylococcus capsulatus (Texas, ATCC 19,069) (Methylococcus capsulatus, UniProt G1UBD1+Q603F1+Q607G3)
T1 sequence (G1UBD1 33-414): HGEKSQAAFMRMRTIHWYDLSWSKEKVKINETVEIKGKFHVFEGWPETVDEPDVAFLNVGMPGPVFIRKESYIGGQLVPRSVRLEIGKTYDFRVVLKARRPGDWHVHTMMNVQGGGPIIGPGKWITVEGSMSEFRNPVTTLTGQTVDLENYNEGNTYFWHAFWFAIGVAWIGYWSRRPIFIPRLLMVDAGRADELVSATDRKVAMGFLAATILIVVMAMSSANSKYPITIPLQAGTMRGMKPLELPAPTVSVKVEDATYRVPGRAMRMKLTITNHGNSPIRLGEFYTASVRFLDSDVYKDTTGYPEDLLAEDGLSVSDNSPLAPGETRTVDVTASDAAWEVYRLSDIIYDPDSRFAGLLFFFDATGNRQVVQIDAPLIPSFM
T1 sequence (Q607G3 1-247): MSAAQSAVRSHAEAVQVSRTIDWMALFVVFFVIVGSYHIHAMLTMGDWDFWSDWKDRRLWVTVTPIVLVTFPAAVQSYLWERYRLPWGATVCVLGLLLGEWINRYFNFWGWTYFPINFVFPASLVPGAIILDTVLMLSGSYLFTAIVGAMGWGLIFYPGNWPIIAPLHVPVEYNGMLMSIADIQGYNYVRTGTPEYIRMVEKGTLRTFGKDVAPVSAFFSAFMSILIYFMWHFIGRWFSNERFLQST
T1 sequence (Q603F1 1-260): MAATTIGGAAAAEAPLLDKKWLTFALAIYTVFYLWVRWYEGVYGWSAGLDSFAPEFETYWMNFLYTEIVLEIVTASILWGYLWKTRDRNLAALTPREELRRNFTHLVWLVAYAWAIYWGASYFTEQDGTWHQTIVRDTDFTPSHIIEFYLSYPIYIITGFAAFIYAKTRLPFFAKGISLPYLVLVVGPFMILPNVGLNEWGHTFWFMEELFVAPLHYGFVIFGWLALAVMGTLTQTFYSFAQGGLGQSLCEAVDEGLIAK
Method: as §1, §2, §3, §4, §5

[3] = tested on: P(40), P(80), S(80) cell fractions of Methylomonas sp. (CRL-17, NRRL B-11,208); settings: 30° C.
Method: as §1, §2, §3, §4, §5

[4] = tested on: P(40), P(80), S(80) cell fractions of Methylosinus trichosporium (OB3b, NRRL B-11,196); settings: S(80) fraction, 30° C.
Method: as §1, §2, §3, §4, §5

Compound: C [Methane]
- Methane-Oxidizing Activity, P(40) ([1]; P(40) fraction): 2.7 μmoles of product formed per h
- Methane-Oxidizing Activity, P(80) ([1]; P(80) fraction): 2.8 μmoles of product formed per h
- Methane-Oxidizing Activity, S(80) ([1]; S(80) fraction): 0 μmoles of product formed per h
- % Distribution in Cell Fraction, Methane-Hydroxylating Activity, P(40) ([2]; P(40) fraction): 90%
- Methane-Oxidizing Activity, P(40) ([2]; P(40) fraction, 30° C.): 3.8 μmoles of product formed per h
- % Distribution in Cell Fraction, Methane-Hydroxylating Activity, P(80) ([2]; P(80) fraction): 10%
- Methane-Oxidizing Activity, P(80) ([2]; P(80) fraction, 30° C.): 3.9 μmoles of product formed per h
- % Distribution in Cell Fraction, Methane-Hydroxylating Activity, S(80) ([2]; S(80) fraction): 0%
- Methane-Oxidizing Activity, S(80) ([2]; S(80) fraction, 30° C.): 0 μmoles of product formed per h
- Methane-Oxidizing Activity, P(40) ([3]; P(40) fraction): 2.9 μmoles of product formed per h
- Methane-Oxidizing Activity, P(80) ([3]; P(80) fraction): 2.7 μmoles of product formed per h
- Methane-Oxidizing Activity, S(80) ([3]; S(80) fraction): 0 μmoles of product formed per h
- Methane-Oxidizing Activity, S(80) [4]: 0 μmoles of product formed per h

Compound: C=CC [Propylene]
- Propylene-Oxidizing Activity, P(40) ([1]; P(40) fraction): 1.2 μmoles of product formed per h
- Propylene-Oxidizing Activity, P(80) ([1]; P(80) fraction): 1.1 μmoles of product formed per h
- Propylene-Oxidizing Activity, S(80) ([1]; S(80) fraction): 0 μmoles of product formed per h
- % Distribution in Cell Fraction, Propylene-Epoxidizing Activity, P(40) ([2]; P(40) fraction): 89%
- Propylene-Oxidizing Activity, P(40) ([2]; P(40) fraction, 30° C.): 2.6 μmoles of product formed per h
- % Distribution in Cell Fraction, Propylene-Epoxidizing Activity, P(80) ([2]; P(80) fraction): 11%
- Propylene-Oxidizing Activity, P(80) ([2]; P(80) fraction, 30° C.): 2.0 μmoles of product formed per h
- % Distribution in Cell Fraction, Propylene-Epoxidizing Activity, S(80) ([2]; S(80) fraction): 0%
- Propylene-Oxidizing Activity, S(80) ([2]; S(80) fraction, 30° C.): 0 μmoles of product formed per h
- Propylene-Oxidizing Activity, P(40) ([3]; P(40) fraction): 2.2 μmoles of product formed per h
- Propylene-Oxidizing Activity, P(80) ([3]; P(80) fraction): 2.0 μmoles of product formed per h
- Propylene-Oxidizing Activity, S(80) ([3]; S(80) fraction): 0 μmoles of product formed per h
- Propylene-Oxidizing Activity, S(80) [4]: 0 μmoles of product formed per h
